# Patent US20060130244A1, “Aqueous composition for dyeing keratin fibres comprising a dye and a specific block copolymer” (priority 2004, published 2006)
# Legend:
# [1] = Stability of dye in alkaline oxidizing medium (test tube, visual coloration); format: physicochemical; settings: ammoniacal solution
# Experimental: The dye tested is Basic Red 76.
# In a first trial, an ammoniacal solution at 0.04% by weight of dye at pH=9 was added to a test tube and the solution was left to stand for 1 hour.
# In a second trial, an ammoniacal solution at 0.04% by weight of dye at pH=9 was added to a test tube in the presence of a poly(sodium acrylate-b-acrylamide) diblock copolymer, in which each block has, respectively, a number-average molecular mass of 5000 and 30 000, and in the presence of aqueous hydrogen peroxide at 3%, and the mixture is left to stand for 1 hour.
# [2] = Solubility of dye in aqueous medium (test tube, visual appearance); format: physicochemical
# Experimental: The dye tested is Astrazon Orange R (or Basic Orange 22).
# In a first trial, an aqueous solution comprising 0.04% of dye is added to a test tube.
# In a second trial, a solution comprising 0.04% of dye, followed by 0.05% by weight of a poly(sodium acrylate-b-acrylamide) diblock copolymer (copolymer of Example 2), are added to a test tube. […] This thus attests to the ability of the block polymers in accordance with the invention to increase the solubility of dyes that are difficult to solubilize in an aqueous medium.
"coloration of the solution after standing 1 hour, dye alone ([1]; 0.04% by weight of dye, pH 9, no copolymer)","coloration of the solution after standing 1 hour, with block copolymer ([1]; 0.04% dye, pH 9, with poly(sodium acrylate-b-acrylamide) diblock copolymer (5000/30 000) and 3% aqueous hydrogen peroxide)","appearance of aqueous solution, with block copolymer ([2]; 0.04% of dye plus 0.05% by weight poly(sodium acrylate-b-acrylamide) diblock copolymer)","appearance of aqueous solution, dye alone ([2]; aqueous solution, 0.04% of dye, no copolymer)",Molecule
visible loss of coloration,remains stable,–,–,COc1ccccc1N=Nc1c(O)ccc2ccc([N+](C)(C)C)cc12.[Cl-] [Basic Red 76]
–,–,clear solution,cloudy appearance,Astrazon Orange R
